Results: patent US20190365675A1, “COMPOSITIONS FOR THE PREVENTION AND/OR TREATMENT OF ALCOHOL USE DISORDERS” (SERVICIO ANDALUZ DE SALUD, priority 2016, published 2019)

Tests used:
Assay type in all cases: in vivo, Wistar rats
COX-2 = COX-2 mRNA in frontal cortex after ethanol intoxication; details: ethanol-treated animals (not in vehicle-treated animals), OEA pre-treatment
Experimental: (§1) The animals were treated with intragastric (i.g.) ethanol 3 times a day using an i.g. cannula (16G needle, Fisher Scientific, Waltham, Mass., USA), following a protocol based on a slightly modified standard 4-day alcohol intoxication pattern (Bernier et al., 2002a, b) (FIG. 1A). The ethanol doses were administered every 8 h for a total time of 4 days. The rats treated with ethanol received an initial loading dose of 5 g/kg of ethanol in a 30% solution (w/v) and then a maximum maintenance dose of 3 g/kg, which were determined based on blood ethanol levels (BEL). This repeated standard alcohol intoxication paradigm kept BEL intoxication relatively constant in a range of sedation/ataxia (190 to 430 mg/dl, Table 3), according to the 6-point alcohol intoxication behavior scale (Majchrowicz, 1975). The mean dose of ethanol/rat/day (days 1-4) was 7.06 g/kg, similar to other studies (Obernier et al., 2002a, b). OEA (5 mg/kg, i.p., except initial dose of 10 mg/kg i.p.; synthesized as described in Giuffrida et al., 2000) was dissolved in the vehicle (5% Tween-80 in saline solution) and injected 10 minutes before each of the administrations of ethanol by an intragastric gavage. […] The quantitative changes in mRNA levels were estimated by means of RT-PCR, carried out in the presence of the SYBR green primer using a 20-L reaction in a Rotor-Gene (Corbett Research®, Mortlake, NSW, Australia). […]

corticosterone = experiment: Plasma corticosterone levels (R.I.A.)
Experimental: The animals were treated with intragastric (i.g.) ethanol 3 times a day using an i.g. cannula (16G needle, Fisher Scientific, Waltham, Mass., USA), following a protocol based on a slightly modified standard 4-day alcohol intoxication pattern (Bernier et al., 2002a, b) (FIG. 1A). The ethanol doses were administered every 8 h for a total time of 4 days. The rats treated with ethanol received an initial loading dose of 5 g/kg of ethanol in a 30% solution (w/v) and then a maximum maintenance dose of 3 g/kg, which were determined based on blood ethanol levels (BEL). This repeated standard alcohol intoxication paradigm kept BEL intoxication relatively constant in a range of sedation/ataxia (190 to 430 mg/dl, Table 3), according to the 6-point alcohol intoxication behavior scale (Majchrowicz, 1975). The mean dose of ethanol/rat/day (days 1-4) was 7.06 g/kg, similar to other studies (Obernier et al., 2002a, b). […]
Corticosterone and LPS were measured in plasma by means of the use of radioimmunoassay (R.I.A.) kits available on the market (Coat-A-Count®, Siemens, La., USA) or colorimetric enzymatic reaction (HyCult Biotech, Uden, Netherlands), respectively.

caspase-8 = experiment: Caspase-8 mRNA in frontal cortex after ethanol intoxication; details: OEA pre-treatment
Experimental: as §1

Q: `CCCCCCCC/C=C\CCCCCCCC(=O)NCCO` [OEA, oleoylethanolamide] was tested. Which “Levels of COX-2 mRNA with ethanol” value (COX-2) did it give?
A: reduced

Q: And the “Plasma corticosterone levels in the control animals” value (corticosterone; control animals (no ethanol))?
A: did not modify

Q: And the “Ethanol-induced increase in plasma corticosterone levels” value (corticosterone; plasma, 2-4 h after last ethanol, OEA pre-treatment)?
A: prevented entirely

Q: And the “Ethanol-induced overexpression of caspase-8 mRNA” value (caspase-8)?
A: reversed
